In paper doi:10.1101/2021.04.29.441652v1 (biorxiv, 2021) one finds remaining activity data, which are given here for 72 molecules.

Molecules are shown by their SMILES.

The test deals with human σ2 receptor (TMEM97) (Homo sapiens, UniProt Q5BJF2). As to the kind of experiment: biochemical. The test is classed as Expi293 membranes. The conditions noted are these: read-out: % of control remaining.
human σ2 receptor (TMEM97), sequence (Q5BJF2 whole entry): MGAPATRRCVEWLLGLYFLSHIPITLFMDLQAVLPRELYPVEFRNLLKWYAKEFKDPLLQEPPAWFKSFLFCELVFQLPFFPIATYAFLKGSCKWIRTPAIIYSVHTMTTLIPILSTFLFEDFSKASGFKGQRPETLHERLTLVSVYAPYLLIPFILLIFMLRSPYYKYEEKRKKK

Regarding `C[C@H](Cc1ccccc1Br)NCC1(O)CCC1` [ZINC000577603040], the remaining activity at 1 µM is 61.7%.
For `O[C@@H]1CC[C@@H]2CN(Cc3cccc4c[nH]nc34)C[C@@H]21` [ZINC000582751592], the remaining activity at 1 µM came to 72.4%.
With `Fc1cccc(Cl)c1CNC1CCC2(CCCO2)CC1` (stereo not drawn) [ZINC000584028046] the figure was 18.4%; with `CC1(C)Cc2cc(C(=O)N3CCC[C@@H](N4CCCC4)CC3)ccc2O1` [ZINC000584233558], 22.7%; with `C[C@@H](C(=O)NC[C@H](C)N1CCCC1)c1c(Cl)cccc1Cl` [ZINC000586751050], 98.2%.
Regarding `O=C(Cn1cc([N+](=O)[O-])ccc1=O)N1CC[C@H](N2CC[C@@H](O)C2)C1` [ZINC000588863575], the remaining activity at 1 µM stood at 134%.
Consider `C[C@H](CN(C)CC(=O)NCc1cccc(Cl)c1)c1ccccc1` [ZINC000589606863], for which the remaining activity at 1 µM amounted to 68.9%.
`CC(C)Cc1ccc(C(=O)N2CCN([C@@H]3CCC[C@@H]3O)CC2)cc1` [ZINC000592403811]: the remaining activity at 1 µM worked out at 153%.
With `CCCN1CC[C@H](NS(=O)(=O)c2ccc(C(=O)OC)cc2F)C1` [ZINC000595353335] the figure was 97.7%; with `N#Cc1sccc1N1CCN(CCCCCn2cccn2)CC1` [ZINC000595632104], 45.7%.
With `Cc1cc([N+](=O)[O-])ccc1NC(=O)CN1CCC[C@@H]([C@@H]2CCCCO2)C1` [ZINC000595790972] the figure was 96.1%.
As for `CCc1c(C(=O)N[C@@H](C)C2CCN(C)CC2)cnn1-c1ccccc1` [ZINC000603324806], the remaining activity at 1 µM came out at 65.5%.
Take `CC(C)Cc1ccc(C(=O)Nc2ccc(OCCN3CCN(C)CC3)cc2)cc1` [ZINC000608224751]: the remaining activity at 1 µM came to 75.6%.
With `COC(=O)[C@H](NCC(C)(C)N1CCc2ccccc2C1)c1ccccc1` [ZINC000609803478] the figure was 49.8%; with `COC(=O)[C@H](c1cccc(Cl)c1Cl)N1CCC[C@H](N2CCCC2)C1` [ZINC000611661177], 19.1%; with `CCN1CC[C@H](N(CC)C(=O)c2cccc(C(F)(F)F)n2)C1` [ZINC000617924178], 126%.
Take `CN(C)S(=O)(=O)N(C)CC(=O)N[C@@H]1COc2cc(F)ccc2C1` [ZINC000618647685]: the remaining activity at 1 µM was 91.7%.
With `CCCN1CCC[C@H]1C(=O)NCc1cnccc1C(F)(F)F` [ZINC000621202771] the figure was 61.4%; with `CC(C)(CO)N1CCN(c2nc3c(Br)cccc3s2)CC1` [ZINC000621267824], 33.4%; with `C[C@@H]1CCCC[C@H]1OCCNC(=O)NC[C@H]1CCCCN(C)C1` [ZINC000623468108], 84.9%.
As for `CC(C)CC[C@@H](CO)N[C@H](C)c1nc2c(s1)CCCC2` [ZINC000624110289], the remaining activity at 1 µM turned out to be 49.3%.
For `COCC(COC)N1CCN(S(=O)(=O)c2cnc(C)n2C)CC1` [ZINC000625246444], the remaining activity at 1 µM stood at 105%.
Regarding `O=C([C@@H]1CCCN1c1ncccn1)N1CC[C@@H](N2CC[C@H](O)C2)C1` [ZINC000627254962], the remaining activity at 1 µM was 114%.
The same measure for `COc1ccccc1C[C@@](C)(CO)NCc1ccc2c(c1)ncn2C` [ZINC000631236280]: 92%.
Consider `O=C(Nc1cscc1Cl)C(=O)N[C@@H]1CCN(CC2CC2)C1` [ZINC000635049325], for which the remaining activity at 1 µM is 53.2%.
As to `Clc1ccc(O[C@H]2CCN(C3CCCC3)C2)cc1` [ZINC000645238909], the remaining activity at 1 µM is 35.5%.
With `C[C@@H](Cc1c(Cl)cccc1Cl)NC(=O)c1cn(C[C@@H]2CCCN2)nn1` [ZINC000646273308] the figure was 106%; with `O=C(CN1CCC[C@@H]1[C@@H]1CCC[C@H]1O)N1CCOC[C@H]1C1CC1` [ZINC000649929688], 96.5%.
The same measure for `O=C(Nc1ccc2ncnn2c1)[C@]1(O)CCN(Cc2ccccc2)C1` [ZINC000655168559]: 97.6%; for `Cc1cc(F)c(CN[C@@H]2CCN(c3ccccc3C(N)=O)C2)c(Cl)c1` [ZINC000656499190]: 71.5%; for `OC[C@]1(CNC2=NCCCN2)CCc2ccccc21` [ZINC000656508398]: 55.9%.
With `C[C@@H](Cc1ccc2c(c1)CCCC2)N[C@H]1CCN(C2CCOCC2)C1=O` [ZINC000657922756] the figure was 1.7%; with `C[C@H](Cn1ncc2ccccc2c1=O)N[C@@H](C)Cc1ccc2c(c1)CCCC2` [ZINC000657934399], 13.3%; with `C[C@H](Cn1cncn1)N[C@@H]1CCN(c2ccccc2C(F)(F)F)C1` [ZINC000657977970], 83.1%.
Regarding `COc1ccc([C@@H](C)N[C@H](CO)C2CCC2)cc1Br` [ZINC000658086473], the remaining activity at 1 µM was found to be 42.3%.
The same measure for `CCOc1cc2c(cc1NC(=O)C[C@@H]1NCc3ccccc31)O[C@@H](C)C2` [ZINC000659267272]: 101%.
With `CNC[C@H](C)NC(=O)C(=O)NCc1ccc(N2CCO[C@@H](C)C2)nc1` [ZINC000659691253] the figure was 82.1%; with `O=C(CN1CC2CC1(c1ccccc1)C2)NC[C@@H]1CCCO1` [ZINC000662335416], 122%; with `CN(CC(=O)Nc1c(Cl)cccc1Cl)C[C@@H]1CC1(C)C` [ZINC000662345330], 42.3%.
On to `COc1cc(NC(=O)CC2(N)CC2)cc(OC)c1Br` [ZINC000662800454], for which the remaining activity at 1 µM came to 106%.
The same measure for `O=C(N[C@H]1CCOC2(CCC2)C1)N1CCC(N2CC[C@@H](O)C2)CC1` [ZINC000664479370]: 103%; for `CN(C)Cc1ccc(-c2cscc2CCO)cc1F` [ZINC000665143541]: 108%; for `O=C(Nc1cnn(CC2CC2)c1)C(=O)N1CCC[C@H]([C@@H]2CCNC2)C1` [ZINC000667676804]: 94.4%.
Regarding `Cc1ccccc1-n1cc(CN2CCC[C@@H]([C@H]3CCCCO3)C2)nn1` [ZINC000668631550], the remaining activity at 1 µM turned out to be 58.4%.
With `OC[C@H](N[C@H]1Cc2[nH]c3ccccc3c2C1)C1CCCCC1` [ZINC000669616349] the figure was 56.6%.
The same measure for `C[C@@H](NC(=O)C(=O)NCCCN1CCC[C@H](C(N)=O)C1)C1CCC1` [ZINC000671981913]: 106%; for `C[C@H]1[C@H](N2CCCC2)CCN1Cc1cn2cc(Br)ccc2n1` [ZINC000672564445]: 69.7%; for `O=C(NCCCC1CC1)C(=O)NC1CCN([C@H]2CCC[C@@H]2O)CC1` [ZINC000673584800]: 110%.
The same measure for `Clc1ccccc1Cn1cc(CN2CCC[C@@H]2c2ccc[nH]2)cn1` [ZINC000676461131]: 63.8%; for `c1ccc(-n2cncn2)c(CN2CCC[C@H](N3CCCC3)CC2)c1` [ZINC000678272880]: 55.7%; for `CN1CC[C@H]2CCN(C(=O)C(=O)Nc3cnc4c(c3)COCC4)[C@@H]2C1` [ZINC000679371269]: 114%.
As to `COCCOCc1cccc(NC(=O)NCC2(C)CCN(C)CC2)c1` [ZINC000679555790], the remaining activity at 1 µM came out at 103%.
As for `Fc1cc(Br)cnc1N1CCN(CCc2cccs2)CC1` [ZINC000681377109], the remaining activity at 1 µM came to 114%.
With `CC[C@@]1(NCC(=O)Nc2ccc(C)cc2Br)CCOC1` [ZINC000683045155] the figure was 108%; with `Clc1ccccc1Cn1cc(CNc2nc3ccccc3[nH]2)cn1` [ZINC000683721842], 99.8%.
In the case of `CCN(CC)c1ncc(CN2CC(C(C)C)C2)s1` [ZINC000684407814], the remaining activity at 1 µM was determined as 70.6%.
With `CC(C)C1CN(C[C@@H](O)COC(c2ccccc2)c2ccccc2)C1` [ZINC000684607185] the figure was 17.3%.
For `Brc1ccccc1-n1cc(CN2CC[C@@H]3CCC[C@@H]32)nn1` [ZINC000685844120], the remaining activity at 1 µM is 51.3%.
As to `CCN1CCN(CCNC(=S)N[C@H](C)c2cccs2)CC1` [ZINC000726467110], the remaining activity at 1 µM worked out at 79.5%.
With `O[C@@H](CN1CCN(c2ccc(-c3nn[nH]n3)cc2F)CC1)C1CC1` [ZINC000738383044] the figure was 118%; with `O[C@@H](CN1CC[C@@H](CSc2ccccc2)C1)c1c(F)cccc1F` [ZINC000743860012], 23.7%.
The same measure for `CN(C(=O)CCn1cnc2c1c(=O)n(C)c(=O)n2C)c1cn[nH]c1` [ZINC000748395040]: 108%; for `Cc1nn(Cc2ccc(F)cc2)c(Cl)c1CNC[C@@]1(O)CCN(C)C1` [ZINC000762555244]: 84.1%; for `Cc1ccc2c(c1)CC[C@H]2N[C@@H](CO)Cc1ccccc1` [ZINC000766031584]: 63.2%.
On to `C[C@H](CCN1C(=O)c2ccccc2C1=O)NC[C@@H](O)c1c(F)cccc1F` [ZINC000769519341], for which the remaining activity at 1 µM was found to be 91.7%.
Turning to `O=C(NC1CCCCC1)C(=O)NC1CCN(C[C@H]2CCCO2)CC1` [ZINC000774469834], the remaining activity at 1 µM was 83.3%.
In the case of `COc1ccc([C@H]2CCN(C[C@@H](O)c3ccc(F)cc3Cl)C2)cc1` [ZINC000775588849], the remaining activity at 1 µM turned out to be 39%.
The same measure for `O=C1NCCC[C@@H]1N1CC[C@@](O)(c2ccc(F)cc2)C1` [ZINC000777733869]: 108%.
With `O=[N+]([O-])c1cccc([C@H](O)CN2CC(Cc3cccc(C(F)(F)F)c3)C2)c1` [ZINC000792998860] the figure was 3.8%; with `O[C@H](CN[C@@H]1CCc2ccccc2OC1)COc1c(Cl)cccc1Cl` [ZINC000801571276], 37.6%.
As for `Cc1ccc(C2=NO[C@@H](CNC(=O)N3CC[C@H](N4CCCC4)C3)C2)cc1C` [ZINC000802379169], the remaining activity at 1 µM is 89.7%.
With `O=C(NC[C@@H]1CN2CCC[C@@H]2CO1)C(=O)N[C@@H]1CC[C@H]2CCC[C@@H]2C1` [ZINC000804054066] the figure was 90%.
